The structures appear in SMILES notation. The source made the active and inactive calls.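 How the source made its calls: active means compounds with mean IC50 at or below 50 µM in this heat-shock counterscreen, flagging likely artifacts; inactive means the rest.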

From PubChem BioAssay AID651993 (Sanford-Burnham Center for Chemical Genomics, 2013) come the findings set out here.

For this experiment, the system named is C. elegans VP596 Phsp-16.2 GFP/RFP heat-shock reporter. The experiment in a line: heat-induced hsp-16.2 reporter inhibition in nematodes, SAR follow-up, counter-screen for SKN-1 inhibitor project, whole organism, C. elegans VP596, GFP/RFP ratio fluorescence (AID 651993). In general terms: A counterscreen serves to expose hits that act by an unwanted route or on another target.
As to `Clc1ccc(Nc2nc(-c3cccs3)cs2)nc1`, the IC50 was > 64 µM (inactive).

Turning to `O=C(/C=C/Nc1ccc(F)cc1F)c1cccs1`, the IC50 was > 64 µM (inactive).

On to `O=C(Nc1nc2c(ccc3ccccc32)s1)c1ccco1`, for which the IC50 is > 64 µM (inactive).

For `O=C(Nc1nc(-c2ccc(Cl)s2)cs1)c1cccs1`, the IC50 is > 64 µM (inactive).

`O=C(/C=C/Nc1ccc(Br)cc1F)c1ccco1`: the IC50 is > 64 µM (inactive).

Regarding `Cc1ccc(N=C/C(C(=O)C(F)(F)F)=C(\O)c2ccco2)cc1Cl`, the IC50 is > 64 µM (inactive).

Regarding `O=C(Nc1nc(-c2ccc(Cl)s2)cs1)c1ccco1`, the IC50 was > 64 µM (inactive).

Consider `Fc1ccc(COc2ccc(-c3nnco3)cc2)c(Cl)c1`, for which the IC50 was > 64 µM (inactive).

In the case of `O=C(/C=C/Nc1ccc(F)c(Cl)c1)c1ccco1`, the IC50 was > 64 µM (inactive).

Regarding `O=C(Nc1nccs1)c1ccc2ccccc2n1`, the IC50 was > 64 µM (inactive).

Take `Brc1ccc(CSc2nnc(-c3cccnc3)o2)cc1`: the IC50 was > 64 µM (inactive).

For `COc1cc(CNC(C)(C)CO)cc(Br)c1OCc1ccc(Cl)cc1`, the IC50 is > 64 µM (inactive).

Take `Clc1ccc(-c2nnc(-c3ccco3)o2)cc1`: the IC50 was > 64 µM (inactive).

In the case of `O=C(Nc1nc(-c2ccccc2)cs1)c1cccs1`, the IC50 was > 64 µM (inactive).

`CCOc1cc(CNC2CCCC2)cc(Cl)c1OCc1ccccc1`: the IC50 was > 64 µM (inactive).

`Fc1ccc(COc2ccc(-c3nnco3)cc2)cc1`: the IC50 was > 64 µM (inactive).

With `Clc1ccccc1-c1nc(-c2ccncc2)no1`, the IC50 is > 64 µM (inactive).

Consider `Clc1ccccc1-c1nnc(-c2ccccc2Cl)o1`, for which the IC50 was > 64 µM (inactive).

On to `Fc1ccc(-c2csc(Nc3ccccn3)n2)cc1`, for which the IC50 was > 64 µM (inactive).

Turning to `O=C(/C=C/Nc1ccc(F)cc1F)c1ccco1`, the IC50 was > 64 µM (inactive).

Regarding `CC(C)c1ccc(C(=O)Nc2ccc(CN3CCOCC3)cc2)cc1`, the IC50 was > 64 µM (inactive).

For the compound `Brc1ccc(-c2nnc(-c3ccco3)o2)cc1`, the IC50 is > 64 µM (inactive).

Regarding `c1ccc(Nc2nc(-c3cccs3)cs2)nc1`, the IC50 was > 64 µM (inactive).

For the compound `c1ccc(SCc2cc(-c3ccccc3)no2)cc1`, the IC50 was > 64 µM (inactive).

For `COc1cc(CNC2CCCC2)cc(Cl)c1OCc1ccc(F)cc1`, the IC50 is > 64 µM (inactive).

Regarding `Cc1ccccc1-c1noc(-c2cccs2)n1`, the IC50 was > 64 µM (inactive).

As to `O=C(/C=C/c1ccc(Br)cc1)c1ccc(NC2=NCCCS2)cc1`, the IC50 is > 64 µM (inactive).

As to `CCOc1ccc(-c2nc(-c3cccnc3)no2)cc1`, the IC50 is > 64 µM (inactive).

Turning to `COc1ccc(C(=O)Nc2nc(-c3cccs3)cs2)cc1`, the IC50 was > 64 µM (inactive).

As to `COc1cc(CNC(C)c2ccccc2)cc(Br)c1OCc1ccc(F)cc1` (stereo not drawn), the IC50 is > 64 µM (inactive).

For the compound `c1ccc(-c2csc(Nc3ccccn3)n2)cc1`, the IC50 is > 64 µM (inactive).

Turning to `CCOc1cc(CNCCSc2nnnn2C)cc(Br)c1OCc1ccc(F)cc1`, the IC50 is > 64 µM (inactive).

Regarding `c1ccc2oc(SCc3nc4ccccc4s3)nc2c1`, the IC50 is > 64 µM (inactive).

In the case of `CSc1cccc(NC(=O)c2cccc3cccnc23)c1`, the IC50 is > 64 µM (inactive).

Turning to `Cc1nc2ccccc2cc1OCc1ccc(F)cc1`, the IC50 was 9.02 µM.

On to `O=C(/C=C/Nc1ccc(F)c(F)c1)c1cccs1`, for which the IC50 is > 64 µM (inactive).

Take `CCOc1cc(CNC2CCCC2)cc(Cl)c1OCc1ccc(F)cc1`: the IC50 is > 64 µM (inactive).

As for `CCOC(=O)Nc1nc(-c2ccc(F)cc2F)cs1`, the IC50 was > 64 µM (inactive).

For the compound `Cc1ccc(-c2noc(-c3cccs3)n2)cc1`, the IC50 is > 64 µM (inactive).

`c1ccc(-c2nc(-c3ccncc3)no2)cc1`: the IC50 was > 64 µM (inactive).

As to `Cc1ccc(CSc2nnc(-c3ccco3)o2)cc1`, the IC50 is > 64 µM (inactive).

In the case of `c1ccc2sc(SCc3ccc(-c4nnco4)cc3)nc2c1`, the IC50 was > 64 µM (inactive).

For `Brc1ccc(-c2nc(-c3ccccc3)no2)o1`, the IC50 was > 64 µM (inactive).

`c1ccc(-c2csc(-c3ccncc3)n2)cc1`: the IC50 is > 64 µM (inactive).

Regarding `CCOC(=O)c1c(-c2ccc(-c3ccccc3)cc2)csc1NC(=O)CNCCN(C)C`, the IC50 was > 64 µM (inactive).

As for `Brc1ccc(CSc2nnc(-c3ccco3)o2)cc1`, the IC50 is > 64 µM (inactive).

For `Clc1ccc(-c2nnc(-c3ccccc3)o2)c(Cl)c1`, the IC50 is > 64 µM (inactive).

Consider `Cc1cc(OCc2cccc(Cl)c2)c(C)cc1CN1CCOCC1`, for which the IC50 was > 64 µM (inactive).

In the case of `O=C(/C=C/c1ccccc1)Nc1ccc(CN2CCOCC2)cc1`, the IC50 was > 64 µM (inactive).

Consider `Cc1ccc(Nc2nc(-c3cccs3)cs2)nc1`, for which the IC50 is > 64 µM (inactive).

Regarding `Cc1ccc2nc(-c3ccc(NC(=S)NC4CC(C)(C)NC(C)(C)C4)cc3)sc2c1`, the IC50 is > 64 µM (inactive).

Regarding `O=C(Nc1nc(-c2ccc(Cl)s2)cs1)c1ccccc1`, the IC50 is > 64 µM (inactive).

Regarding `Cc1oc(-c2ccc(-c3ccccc3)cc2)nc1CN(C)C1CCOC1` (stereo not drawn), the IC50 was > 64 µM (inactive).

On to `Fc1ccc(-c2csc(-c3ccncc3)n2)cc1`, for which the IC50 is > 64 µM (inactive).

Take `O=C(/C=C/Nc1ccccc1F)c1cccs1`: the IC50 is > 64 µM (inactive).

As for `O=C(Nc1ccc(CN2CCOCC2)cc1)c1cc2ccccc2o1`, the IC50 is > 64 µM (inactive).

Consider `CCc1ccc(-c2nc(-c3ccncc3)no2)cc1`, for which the IC50 is > 64 µM (inactive).

For `O=C(/C=C/c1cccs1)c1ccc(Br)cc1`, the IC50 was > 64 µM (inactive).

Usually IC50 stands for the concentration needed to halve the response being measured.
